Experimental data as given in patent EP0768085A1, “ANTIBACTERIAL AGENT” (DAIICHI PHARMACEUTICAL CO., LTD., priority 1994, dated 1996).
In brackets after ≈: the same amount, converted by molar mass.

Columns and labels:
Type in all cases: cell-based
Pasteurella from fish = experiment: Antibacterial activity (IC), agar as in Example 8, media with 1.5% NaCl, 25°C (Example 20, Tables 53-55)
Procedure, shortened: (§1)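 Growth inhibition was scored by turbidity after culture at 25°C, with IC bands set from 2-fold-dilution MIC-equivalents. Samples were tested at final 100, 10 and 1 µg/ml in Mueller-Hinton agar with 1.5% NaCl, seeded with 10^6 CFU/ml of the fish isolates.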

Enterococcus from fish = experiment: as above
Procedure, shortened: as §1

[1] = tested on: Bordetella bronchiseptica (SM2-4); experiment: Antibacterial activity (IC), broth microplate as in Example 4 (Example 7, Table 42)
Method: (§2) A suitable amount of a sample was dissolved in dimethylsulfoxide (DMSO), and the resultant solution was diluted with the same amount of sterilized distilled water to prepare a bulk sample of 1,000 µg/ml. Mueller-Hinton broth (product of DIFCO) was dispensed into each well of 96-well microplate. Thereafter, the bulk specimen was added to the first well of a row, and successively diluted (10-fold each time) with sterilized distilled water. Separately, a bacterial cell suspension for the test (Staphylococcus aureus 209-P) which had been cultured in the above-mentioned broth overnight at 37°C was inoculated to each well so that the final inoculation amount of 10^6 CFU/ml was attained. The final concentrations of the samples were 100, 10, and 1 µg/ml.
(§3) The antibacterial action was evaluated by the inhibitory concentration (hereinafter abbreviated as IC) at which propagation of the bacteria cultured at 37°C for 18 hours was inhibited. Inhibition was determined by the turbidity of the medium. The expressions "IC≤100", "≤10", and "≤1" indicate that MIC-equivalent values obtained at the succesive […] dilution of the sample are 100-10 µg/ml, 10-1 µg/ml, and not more than 1 µg/ml, respectively. […] (In the subsequent Examples, the same rule applies correspondingly.) Table 39
In a manner similar to that described in Example 4, antibacterial activity of the invention compound was determined. The bacterium used for the test was Bordetella bronchiseptica (SM2-4).

[2] = tested on: Pasteurella multocida (Kobe-6); experiment: Antibacterial activity (IC), broth microplate as in Example 4 (Example 6, Table 41); details: origin pig
Method: as §2, §3
In a manner similar to that described in Example 4, antibacterial activity of the invention compound was determined. The bacterium used for the test was Pasteurella Kobe-6 (origin: pig; Pasteurella multocida).

[3] = tested on: Staphylococcus aureus TI-1; experiment: Antibacterial activity (IC), broth microplate as in Example 4 (Example 5, Table 40)
Method: as §2, §3
In a manner similar to that described in Example 4, antibacterial activity of the invention compound was determined. The bacterium used for the test was Staphylococcus aureus TI-1.

[4] = tested on: methicillin-resistant Staphylococcus aureus (MRSA) isolated from humans; experiment: Antibacterial activity (IC), Mueller-Hinton agar containing the sample (Example 8, Table 43); details: 18 hours
Method: as §3
(§4) A suitable amount of a sample was dissolved in dimethylsulfoxide (DMSO), after which the resulting solution was diluted with the same amount of sterilized distilled water to prepare a bulk sample of 1,000 µg/ml. Separately, a bacterial liquid for the test (methicillin-resistant Staphylococcus aureus (MRSA) isolated from humans) which had been cultured in Mueller-Hinton broth (product of DIFCO) was prepared and inoculated to a Mueller-Hinton agar (product of DIFCO) containing the sample so that the final inoculation amount of 10^6 CFU/ml was achieved. The final concentrations of the samples were 100, 10, and 1 µg/ml.
(§5) After culturing at 37°C for 18 hours, the antibacterial activity was evaluated in terms of IC in a manner similar to that described in Example 4.

[5] = tested on: Staphylococcus aureus 209-P; experiment: Antibacterial activity (IC), Mueller-Hinton broth, 96-well microplate (Example 4, Table 39); details: 37°C, 18 hours
Method: as §2, §3

[6] = tested on: Bordetella bronchiseptica (SM2-4); experiment: Antibacterial activity (IC), agar as in Example 8 (Example 18, Table 51); details: 18 h
Method: as §3, §4, §5
(§6) In a manner similar to that described in Example 8, antibacterial activity of the invention compound was determined. The bacterium used for the test was Bordetella bronchiseptica (S1) and Bordetella bronchiseptica (SM2-4).

[7] = tested on: Bordetella bronchiseptica (S1); experiment: as above; details: 18 h
Method: as §3, §4, §5, §6

[8] = tested on: Staphylococcus aureus (209-P); experiment: Antibacterial activity (IC), agar as in Example 8 (Example 15, Table 48); details: 18 h
Procedure, shortened: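 Agar dilution with Mueller-Hinton agar containing sample at final 100, 10 and 1 µg/ml, inoculated to 10^6 CFU/ml. Incubated at 37°C for 18 h, growth inhibition judged by medium turbidity. IC bands at successive 2-fold dilution: 100-10, 10-1, or ≤1 µg/ml.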

[9] = tested on: Streptococcus aureus (TI-1); experiment: Antibacterial activity (IC), agar as in Example 8 (Example 16, Table 49); details: 18 h
Procedure, shortened: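 Broth-grown […] aureus (TI-1) inoculated onto Mueller-Hinton agar containing compound, per the MRSA method; DMSO/water dilutions at final 100, 10 and 1 µg/ml, 10^6 CFU/ml inoculum. After 18 h at 37°C, growth inhibition judged by turbidity; IC reported as bands (100-10, 10-1, ≤1 µg/ml).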

[10] = tested on: methicillin-resistant Staphylococcus aureus (MRSA) from humans; experiment: Antibacterial activity (IC), agar as in Example 8 (Example 19, Table 52); details: 18 h
Procedure, shortened: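 MRSA human isolate at 10^6 CFU/ml on Mueller-Hinton agar containing compound at 100, 10 or 1 µg/ml, grown 18 h at 37 °C. IC is the lowest tested level that inhibited growth, binned as ≤100, ≤10 or ≤1 µg/ml.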

[11] = tested on: Pasteurella multocida (Kobe-6); experiment: Antibacterial activity (IC), agar as in Example 8 (Example 17, Table 50); details: 18 h, origin pig
Procedure, shortened: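 Agar dilution on Mueller-Hinton agar with compound at 100, 10 and 1 µg/ml, inoculated at 10^6 CFU/ml with pig-origin strain Kobe-6. After 18 h at 37 °C, IC scored from turbidity and reported as a band (≤100, ≤10, ≤1 µg/ml).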

[12] = Enterococcus Seriolicida KG86050
[13] = Enterococcus Seriolicida MS89060
[14] = Enterococcus Seriolicida MS89064
[15] = Enterococcus Seriolicida MS89066
[16] = Enterococcus Seriolicida MS89068
[17] = Enterococcus Seriolicida SE94-001
[18] = Enterococcus Seriolicida SE94-002
[19] = Enterococcus Seriolicida SE94-003
[20] = Enterococcus Seriolicida SE94-004
[21] = Enterococcus Seriolicida SE94-005

## 4-[2-(2-chloro-4-trifluoromethylphenoxy)-4-methylphenoxy]-2-(3,4-dichlorophenyl)-3-oxopentanonitrile and 4-[2-(2-chloro-4-trifluoromethylphenoxy)-5-methylphenoxy]-2-(3,4-dichlorophenyl)-3-oxopentanonitrile [Compound No. 308]
Pasteurella from fish; Pasteurella piscicida KP94-02
  IC: ≤
Pasteurella from fish; Pasteurella piscicida KP94-04
  IC: ≤
Pasteurella from fish; Pasteurella piscicida KP94-05
  IC: ≤
Pasteurella from fish; Pasteurella piscicida KP94-06
  IC: ≤
Enterococcus from fish; Enterococcus Seriolicida HI
  IC: ≤ 1 µg/mL
Enterococcus from fish; [12]
  IC: ≤ 1 µg/mL
Enterococcus from fish; [13]
  IC: ≤ 1 µg/mL
Enterococcus from fish; [14]
  IC: ≤ 1 µg/mL
Enterococcus from fish; [15]
  IC: ≤ 1 µg/mL
Enterococcus from fish; [16]
  IC: ≤ 1 µg/mL
Enterococcus from fish; [17]
  IC: ≤ 1 µg/mL
Enterococcus from fish; [18]
  IC: ≤ 1 µg/mL
Enterococcus from fish; [19]
  IC: ≤ 1 µg/mL
Enterococcus from fish; [20]
  IC: ≤ 1 µg/mL
Enterococcus from fish; [21]
  IC: ≤ 1 µg/mL
[1]
  IC: 308 (≤100) (MIC-equivalent values obtained at the succesive 2-fold dilution of the sample are 100-10 µg/ml)
[2]
  IC: 308 (≤10) (10-1 µg/ml)
[3]
  IC: 308 (≤1) (not more than 1 µg/ml)
[4]; MRSA strain 891179, 37°C
  IC: ≤ 1 µg/mL
[4]; MRSA strain 891185, 37°C
  IC: ≤ 1 µg/mL
[4]; MRSA strain 891187, 37°C
  IC: ≤ 1 µg/mL
[4]; MRSA strain 891192, 37°C
  IC: ≤ 1 µg/mL
[4]; MRSA strain 900048, 37°C
  IC: ≤ 1 µg/mL
[4]; MRSA strain 900056, 37°C
  IC: ≤ 1 µg/mL
[5]
  IC: 308 (≤1) (not more than 1 µg/ml)

## Cc1cc(Oc2ccc(C(F)(F)F)cc2Cl)cc(OC(C)C(=O)C(C#N)c2ccc(Cl)c(Cl)c2)c1 (stereo not shown) [Compound No. 112, 4-[3-(2-chloro-4-trifluoromethylphenoxy)-5-methylphenoxy]-2-(3,4-dichlorophenyl)-3-oxopentanonitrile]
Pasteurella from fish; Pasteurella piscicida KP94-02
  MIC: 1 to 10 µg/mL (≈ 1.84 to 18.4 µM)
Enterococcus from fish; Enterococcus Seriolicida HI
  IC: ≤10 (10-1 µg/ml)
Enterococcus from fish; [12]
  IC: ≤10 (10-1 µg/ml)
Enterococcus from fish; [13]
  IC: ≤10 (10-1 µg/ml)
Enterococcus from fish; [14]
  IC: ≤10 (10-1 µg/ml)
Enterococcus from fish; [15]
  IC: ≤10 (10-1 µg/ml)
Enterococcus from fish; [16]
  IC: ≤10 (10-1 µg/ml)
Enterococcus from fish; [17]
  IC: ≤10 (10-1 µg/ml)
Enterococcus from fish; [18]
  MIC: 1 to 10 µg/mL (≈ 1.84 to 18.4 µM)
Enterococcus from fish; [19]
  IC: ≤10 (10-1 µg/ml)
Enterococcus from fish; [20]
  IC: ≤10 (10-1 µg/ml)
Enterococcus from fish; [21]
  IC: ≤10 (10-1 µg/ml)
[6]
  MIC: 10 to 100 µg/mL (≈ 18.4 to 184 µM)
[7]
  MIC: 10 to 100 µg/mL (≈ 18.4 to 184 µM)
[8]
  MIC: ≤ 1 µg/mL
[9]
  MIC: ≤ 1 µg/mL
[10]; MRSA strain 891179
  MIC: ≤ 1 µg/mL
[10]; MRSA strain 891185
  MIC: ≤ 1 µg/mL
[10]; MRSA strain 891187
  MIC: ≤ 1 µg/mL
[10]; MRSA strain 891192
  MIC: ≤ 1 µg/mL
[10]; MRSA strain 900048
  MIC: ≤ 1 µg/mL
[10]; MRSA strain 900056
  MIC: ≤ 1 µg/mL
[11]
  MIC: ≤ 1 µg/mL

## CC(Oc1cc(Cl)cc(Oc2ccc(C(F)(F)F)cc2Cl)c1)C(=O)C(C#N)c1ccc(Cl)c(Cl)c1 (stereo not shown) [compound 212]
Pasteurella from fish; Pasteurella piscicida KP94-02
  MIC: 1 to 10 µg/mL (≈ 1.78 to 17.8 µM)
Pasteurella from fish; Pasteurella piscicida KP94-04
  IC: ≤10 (10-1 µg/ml)
Pasteurella from fish; Pasteurella piscicida KP94-05
  IC: ≤10 (10-1 µg/ml)
Pasteurella from fish; Pasteurella piscicida KP94-06
  IC: ≤10 (10-1 µg/ml)
Enterococcus from fish; Enterococcus Seriolicida HI
  IC: ≤ 1 µg/mL
Enterococcus from fish; [12]
  IC: ≤ 1 µg/mL
Enterococcus from fish; [13]
  IC: ≤ 1 µg/mL
Enterococcus from fish; [14]
  IC: ≤ 1 µg/mL
Enterococcus from fish; [15]
  IC: ≤ 1 µg/mL
Enterococcus from fish; [16]
  IC: ≤ 1 µg/mL
Enterococcus from fish; [17]
  IC: ≤ 1 µg/mL
Enterococcus from fish; [18]
  MIC: ≤ 1 µg/mL
Enterococcus from fish; [19]
  IC: ≤ 1 µg/mL
Enterococcus from fish; [20]
  IC: ≤ 1 µg/mL
Enterococcus from fish; [21]
  IC: ≤ 1 µg/mL
[6]
  MIC: 10 to 100 µg/mL (≈ 17.8 to 178 µM)
[7]
  MIC: 10 to 100 µg/mL (≈ 17.8 to 178 µM)
[8]
  MIC: ≤ 1 µg/mL
[9]
  MIC: ≤ 1 µg/mL
[10]; MRSA strain 891179
  MIC: ≤ 1 µg/mL
[10]; MRSA strain 891185
  MIC: ≤ 1 µg/mL
[10]; MRSA strain 891187
  MIC: ≤ 1 µg/mL
[10]; MRSA strain 891192
  MIC: ≤ 1 µg/mL
[10]; MRSA strain 900048
  MIC: ≤ 1 µg/mL
[10]; MRSA strain 900056
  MIC: ≤ 1 µg/mL
[11]
  MIC: 1 to 10 µg/mL (≈ 1.78 to 17.8 µM)

## CC(Oc1cc(Cl)cc(Oc2ccc(C(F)(F)F)cc2Cl)c1)C(=O)C(C#N)c1cccc(Br)c1 (stereo not shown) [compound 213]
Pasteurella from fish; Pasteurella piscicida KP94-02
  MIC: 1 to 10 µg/mL (≈ 1.74 to 17.4 µM)
Pasteurella from fish; Pasteurella piscicida KP94-04
  IC: ≤10 (10-1 µg/ml)
Pasteurella from fish; Pasteurella piscicida KP94-05
  IC: ≤10 (10-1 µg/ml)
Pasteurella from fish; Pasteurella piscicida KP94-06
  IC: ≤10 (10-1 µg/ml)
Enterococcus from fish; Enterococcus Seriolicida HI
  IC: ≤ 1 µg/mL
Enterococcus from fish; [12]
  IC: ≤ 1 µg/mL
Enterococcus from fish; [13]
  IC: ≤ 1 µg/mL
Enterococcus from fish; [14]
  IC: ≤ 1 µg/mL
Enterococcus from fish; [15]
  IC: ≤ 1 µg/mL
Enterococcus from fish; [16]
  IC: ≤ 1 µg/mL
Enterococcus from fish; [17]
  IC: ≤ 1 µg/mL
Enterococcus from fish; [18]
  MIC: ≤ 1 µg/mL
Enterococcus from fish; [19]
  IC: ≤ 1 µg/mL
Enterococcus from fish; [20]
  IC: ≤ 1 µg/mL
Enterococcus from fish; [21]
  IC: ≤ 1 µg/mL
[6]
  MIC: 10 to 100 µg/mL (≈ 17.4 to 174 µM)
[7]
  MIC: 10 to 100 µg/mL (≈ 17.4 to 174 µM)
[8]
  MIC: 1 to 10 µg/mL (≈ 1.74 to 17.4 µM)
[9]
  MIC: 1 to 10 µg/mL (≈ 1.74 to 17.4 µM)
[10]; MRSA strain 891179
  MIC: 1 to 10 µg/mL (≈ 1.74 to 17.4 µM)
[10]; MRSA strain 891185
  MIC: ≤ 1 µg/mL
[10]; MRSA strain 891187
  MIC: ≤ 1 µg/mL
[10]; MRSA strain 891192
  MIC: ≤ 1 µg/mL
[10]; MRSA strain 900048
  MIC: 1 to 10 µg/mL (≈ 1.74 to 17.4 µM)
[10]; MRSA strain 900056
  MIC: 1 to 10 µg/mL (≈ 1.74 to 17.4 µM)
[11]
  MIC: 1 to 10 µg/mL (≈ 1.74 to 17.4 µM)
